# Measurements from patent publication US20220184037A1, “PHARMACEUTICAL AGENTS TARGETING CANCER STEM CELLS” (THE JOHNS HOPKINS UNIVERSITY, priority 2020, published 2022).
# Assays:
# [1] = tested on: let-7 host gene MIRLET7BHG promoter; test: Bisulfite sequencing of let-7 host gene promoter methylation; format: cell-based, human; settings: 10 μM celecoxib, 2 μM PGE2, or 5 μM 5-Aza-dC for 5 days
# Description: Cell pellets were digested with 1% sodium dodecyl sulfate and 50 μg/mL proteinase K (Roche, Nutley, USA) at 48° C. overnight. Isolation of genomic DNA from cell lines was performed with the phenol-chloroform extraction protocol followed by ethanol precipitation. Bisulfite treatment was conducted using an EpiTect Bisulfite K ft (QIAGEN, Valencia, USA), and was subsequently amplified via PCR using primers as shown in the following table. PCR products were purified using the QIAquick Gel Extraction kit (Qiagen), and sequenced by Genewiz DNA sequencing service (Genewiz, South Plainfield, USA). The data were analyzed using the Sequence Scanner v1.0 software (Life technologies). A methylation frequency of ≥50% of total CpG sites within the amplified region was considered “methylation-positive”. For demethylation, cells ([…]) dissolved in 50% acetic acid or were mock-treated with phosphate buffered saline (PBS) including the same amount of acetic acid every 24 hours for 5 days. When combined with the histone deacetylase inhibitor TSA (Sigma), 300 nmol/L TSA was added to the medium for the final 24 hours.
# let-7 = let-7 expression by Q-RT-PCR; format: cell-based, human; settings: parental or spheroid bladder cancer cells
# Description: (§1) Total RNA from cell lines was isolated using the RNeasy Plus Mini kit (Qiagen, Valencia, USA) according to the manufacturer's protocol. Total RNA extraction from bladder tissue was performed with the QIAzol Lysis Reagent (Qiagen) followed by phenol extraction and ethanol precipitation. Total RNA was eluted in DEPC treated water and stored at −80 ° C. Total RNA extraction from urine was performed using the MirVana miRNA Isolation Kit (Ambion, Austin, USA). These total RNA were converted to cDNA using the SuperScript III First-Strand Synthesis System (Life technologies, Carlsbad, USA), which was then used as a template for Q-RT-PCR. Q-RT-PCR was performed using the Fast SYBR Green Master Mix (Thermo Fisher Scientific, Waltham, USA) on a 7900HT Fast Real-Time PCR System (Life technologies) in triplicate. Micro RNA (miRNA) extraction was performed using the MirVana miRNA Isolation Kit, and was reverse transcribed using TaqMan reverse transcription kit (Applied Biosystems, Foster City, USA) and miRNA-specific RT primers provided with TaqMan microRNA assays (Applied Biosystems). Q-RT-PCR for miRNAs was performed using the TaqMan Universal PCR Master Mix according to the manufacturer's protocol. SDS software (Applied Biosystems) was used to determine cycle threshold (Ct) values. Expression level was quantified relative to β-actin for mRNA and RNU6B for miRNA using the 2-ΔΔCt method (12).
# For demethylation, cells (1×10^6/T-75 flask) were treated with […] of the demethylating agent 5-Aza-dC (Sigma) dissolved in 50% acetic acid or were mock-treated with phosphate buffered saline (PBS) including the same amount of acetic acid every 24 hours for 5 days. When combined with the histone deacetylase inhibitor TSA (Sigma), 300 nmol/L TSA was added to the medium for the final 24 hours.
# [2] = tested on: bladder cancer cells (urothelial CSCs); test: Sphere formation assay; format: cell-based, human; settings: for sphere-forming ability / sphere formation: COX2 inhibitor or EP4 antagonist alone
# Description: Sphere formation was induced by culturing cells (2×10^4/well) in […] F12 50/50 Mix (Mediatech) supplemented with B-27 (Life Technologies), 20 ng/mL FGF-basic (Peprotech), 20 ng/mL EGF (Peprotech). Cell culture was performed in ultra-low attachment 6 well plates (Corning, Lowell, USA) for 10 days. The medium was replaced every other day. Sphere formation was evaluated using the inverted phase-contrast microscope, and single sphere with a diameter larger than 100 gm was counted using NIS-Elements Microscope Imaging Software. To redifferentiate spheres, spheres were plated in standard growth medium with 10% FBS in dishes supporting cell attachment, and incubated for 7 days. For self-renewal assay, primary spheres were collected by gentle centrifugation (5 min at 400×g), dissociated with Stempro Accutase Cell Dissociation Reagent (Life Technologies), and mechanically disrupted with a pipette. The cell suspension was sieved through 40 μm cell strainer cap filter to achieve a single-cell suspension, and then equal numbers of alive cells were plated in ultralow attachment plates to generate the second spheres. Again, spheres were counted on day 14 and digested to generate the third Spheres. All the experiments were performed in triplicate and repeated at least three times.
# SOX2 = test: Western blotting / flow cytometry of SOX2 expression in bladder cancer cells; format: cell-based, human
# Description: (§2) Whole cell lysates were extracted using RIPA buffer (Thermo Scientific) supplemented with 10 μL/mL Halt™ Protease Inhibitor Cocktail Kit (Life Technologies) and 30 μL/mL Halt™ Phosphatase Inhibitor Cocktail Kit (Life Technologies). The protein concentrations were determined using a Pierce™ BCA Protein Assay Kit (Life Technologies), and the protein were separated on. NuPAGE 4-12% Bis-Tris Gel (Life Technologies) according to the manufacturer's protocol. COX2 (D5H5), NANOG (D73G4), OCT4 (D7O5Z), CD133 (A3G6K), Snail (C15D3), ZEBI (D80D3), Vimentin (D21H3), CDH2 (D4R1H), CDH1 (24E10), p-EGFR (D7A5), EGFR (D38B1), p-AKT (D9E), AKT (cat #, 9272), p-ERK (D13.14.4E), ERK (137F5), p-YAP1 (D9W2I), p-Src (cat #, 2101), Src (36D10), DNMT1 (D63A6), DNMT3A (D23G1), and DNMT3B (D7070) antibodies were obtained from Cell Signaling Technology (Danvers, Mass., USA), except for SOX2 (EPR3131; Abeam, Cambridge, USA), YAP1 (ab52771; Abeam), CD24 (cat #, AF5247-SP; R&D Systems, Minneapolis USA) and β-actin (A2228; Sigma-Aldrich). Secondary horseradish peroxidase (HRP)-conjugated antibodies were obtained from Cell Signaling Technology, and chemiluminescent detection of HRP-labeled antibodies was performed using Amersham ECL Prime Western Blotting Detection Reagent (GE Healthcare, Piscataway, USA). As loading control, β-actin was used.
# For extracellular staining, cells (1×10^6/100 μL stain buffer) were incubated with PE-Vio770-conjugated anti-human CD133 (293C3; Miltenyi Biotec, Auburn, USA) or PE-conjugated anti-human CD24 antibody (cat #, 560991; BD Biosciences) for 30 min at 4° C. in dark. PE-Vio770-conjugated anti-IgG1κ Isotype (cat #, 130-098-563; Miltenyi Biotec) and PE-conjugated IgG2a, κ Isotype (cat #, 555574; BD Biosciences) were used as control for CD133 and CD24 staining, respectively. Staining for intracellular SOX2 was carried out using the BD Cytofix/Cytopem Fixation/Permeabilization Kit (BD Biosciences) according to manufacturer's protocol. The cells were incubated with Alexa Fluor 647-conjugated anti-SOX2 antibody (cat #, 560302; BD Biosciences) for 40 min at 4° C. in dark. Alexa Fluor 647-conjugated anti-IgG2a, κ Isotype (cat #, 558053; BD Biosciences) was used as control. Data were acquired on a BD FACSCalibur flow cytometer (BD Biosciences) using BD CellQuest Pro software (BD Biosciences) and analyzed with FlowJo software v10.1 (Tree Star, Ashland, USA).
# DNMT 1 and 3A = test: Western blotting of DNMTs; format: cell-based, human; settings: PGE2-treated cells
# Description: as §2
# [3] = tested on: panel of miRNAs in BFTC 905 cells; test: Expression of a panel of miRNAs; format: cell-based, human; settings: addition of PGE2 to COX2 inhibitor
# Description: as §1
# YAP1 = test: Western blotting of YAP1 expression in bladder cancer cells; format: cell-based, human
# Description: as §2
# COX2 = test: Western blotting of COX2 expression in bladder cancer cells; format: cell-based, human
# Description: as §2
# [4] = Body weight of treated mice; format: in vivo; settings: mouse, in vivo
# Description: For therapeutic efficacy, mice were randomly assigned into experimental groups (five mice per group) when tumors reached a volume of […]. For celecoxib and/or VP treatment, celecoxib (5 mg/kg) was administered via intraperitoneal (i.p.) injection once a day (17), and VP (50 mg/kg) was administered via i.p. every other day (18). EP4 antagonist ONO-AE3-208 (10 mg/kg) was administered via i.p. once a day (19). Control was applied with same volume (10 μL per injection) of 10% dimethyl sulphoxide in 1% TWEEN 80 (Sigma-Aldrich). For GEM and CDDP (GC) treatment (i.p.), CDDP (6 mg/kg) was only applied after the first GEM (60 mg/kg) treatment on day 2, followed by three consecutive treatments of GEM on day 5, 8 and 11 (17). The next cycle was started on day 18, and the treatment was continued until tumor reached 2 cm in diameter. For erlotinib treatment, the mice were treated once a day, 6 days per week, by oral gavage with erlotinib (100 mg/kg) or control (PBS containing 0.5% methyl cellulose (Sigma-Aldrich) and 0.1% TWEEN 80) (20). Tumor size was measured at least every three days. Therapeutic efficacy was assessed using percentage change after treatment related to tumor size before treatment. […]
# [5] = COX2 inhibitor or EP4 antagonist alone (FIG. 2A-B, S7)
# [6] = addition of PGE2 to celecoxib treatment
compound,measurement,setting,value
"Nc1ncn([C@H]2C[C@H](O)[C@@H](CO)O2)c(=O)n1 [5-Aza-dC, 5-Aza-2′-deoxycytidine]",promoter methylation of the let-7 host gene,[1],demethylated
same,let-7 expression,let-7,restoration of let-7 expression
"CC(C(=O)Nc1cc(C#N)ccc1CCCC(=O)O)c1ccc(F)c2ccccc12 (stereo not shown) [EP4-specific antagonist, ONO-AE3-208]",sphere-forming ability / sphere formation,[2],dramatic reduction
same,SOX2 expression,SOX2; [5],dramatic reduction
"CCCCC[C@H](O)/C=C/[C@H]1[C@H](O)CC(=O)[C@@H]1C/C=C\CCCC(=O)O [PGE2, Prostaglandin E2]",DNMT 1 and 3A expression,DNMT 1 and 3A,upregulated
same,expression of several miRNAs,[3],reduced these expression
same,promoter methylation of the let-7 host gene,[1],Promoter methylation of the let-7 host gene was observed
same,celecoxib-repressed sphere-forming ability,[2]; [6],restored
same,let-7 expression,let-7,reduced its expression
same,celecoxib-repressed SOX2 expression,SOX2; [6],restored
"CC(C)(C)n1nc(-c2ccc(Cl)cc2)c2c(N)ncnc21 [Src inhibitor, PP2]",COX2 inhibitor-induced YAP1 expression,YAP1; treatment with the Src inhibitor (FIG. S8H),downregulated
"C=Cc1c(C)c2cc3nc(cc4[nH]c(cc5nc(cc1[nH]2)C(C)=C5CCC(=O)O)c(CCC(=O)OC)c4C)[C@@]1(C)C3=CC=C(C(=O)OC)[C@H]1C(=O)OC [VP, 3-[(23S,24R)-14-ethenyl-5-(3-methoxy-3-oxopropyl)-22,23-bis(methoxycarbonyl)-4,10,15,24-tetramethyl-25,26,27,28-tetraazahexacyclo[16.6.1.1^3,6.1^8,11.1^13,16.0^19,24]octacosa-1,3,5,7,9,11(27),12,14,16,18(25),19,21-dodecaen-9-yl]propanoic acid]",COX2 expression,COX2; VP alone,induced COX2 expression in a dose-dependent manner
same,body weight loss,[4],did not observe body weight loss
same,expression of SOX2 and its related molecules,SOX2; VP alone,reduced expression
"N.N.[Cl][Pt][Cl] [cisplatin, Cisplatin]",COX2 expression,COX2; CDDP chemotherapy alone,overexpression
same,sphere formation,[2]; CDDP chemotherapy alone,increased sphere formation
same,YAP1 expression,YAP1; CDDP chemotherapy alone,overexpression
same,SOX2 expression,SOX2; CDDP chemotherapy alone,overexpression
"CCc1cccc2c3c([nH]c12)C(CC)(CC(=O)O)OCC3 (stereo not shown) [etodolac, Etodolac]",sphere-forming ability / sphere formation,[2],dramatic reduction
same,SOX2 expression,SOX2; [5],dramatic reduction
EGF: Recombinant human epidermal growth factor,YAP1 expression,YAP1; EGF-stimulated EGFR signaling,increased
same,SOX2 expression,SOX2; EGF-stimulated EGFR signaling,increased
